We go through twelve molecules from US20250257055A1, “TERTIARY AMIDE DERIVATIVES SUBSTITUTED WITH 4-MEMBERED RING STRUCTURE” (Sumitomo Pharma Co., Ltd., priority 2024, published 2025).

Structures are written as SMILES. Read-outs that look alike come from different tables or passages of the source.

Series [1] deals with G-401 cells. In words: Cell proliferation inhibition experiment using G-401 cells. The series is classed as cell-based. The note with it: Homo sapiens, 72 h, cultured for 3 days, CellTiter-Glo. As for the experimental part:
G-401 cells (derived from malignant rhabdoid tumor) were obtained from the American Type Culture Collection (ATCC). G-401 cells were cultured in McCoy's 5A medium containing 10% fetal bovine serum and 1% penicillin/streptomycin under conditions of 37° C. and 5% CO2.
500 cells per well were seeded in a 384-well plate. One day after seeding, Examples 1 to 35 were added so that the final concentration of DMSO was 0.1%, and the cells were cultured for 3 days. After the culture was completed, the cell viability was measured using CellTiter-Glo Luminescent Cell Viability Assay (Promega, G7570).
(In general: In ATP-based viability assays light output follows the ATP content of the culture.)

A short description of series [2]: Membrane permeability test (PAMPA). The series is classed as in vitro ADME. As for the experimental part:
The membrane permeability of the test compound was tested by parallel artificial membrane permeability assay (PAMPA) as follows. 200 μL of System solution (pION Inc.) containing the test compound and 4 μL of GIT Lipid-0 (pION Inc.) were added to the donor plate. 200 μL of Acceptor Sink Buffer (pION Inc.) was added to the acceptor plate. Both plates were overlapped and incubated at 37° C. for 4 hours, after which the UV of the solutions on the acceptor side and donor side was measured using a UV plate reader (190-500 nm). Compounds with poor UV absorption were measured using LC-MS. The permeability coefficient Pe (10^−6 cm/sec) of the drug was calculated using the following equation.

Series [3] concerns the target recombinant p300 (Homo sapiens (Human), UniProt Q09472). Nature of the series: HAT activity inhibition experiment (SensoLyte HAT(p300) Assay Kit). In kind it is biochemical. The settings on record: recombinant p300, histone H3 peptide, acetyl CoA. The protocol:
The HAT activity inhibitory ability of HAT inhibitors was evaluated using SensoLyte HAT(p300) Assay Kit (ANASPEC, AS-72172). Specifically, 7.5 μL of the compound of Examples […] diluted with assay buffer was added to 7.5 μL of recombinant p300 solution diluted 10 times with assay buffer, and the mixture was incubated at room temperature for 10 minutes. 7.5 μL of acetyl CoA solution diluted 10 times with assay buffer and 15 μL of histone H3 peptide diluted 10 times with assay buffer were added thereto, and the mixture was incubated at 37° C. for 30 minutes. 37.5 μL of Stop Solution was added to stop the reaction. 75 μL of p300 Developer solution diluted 50 times with assay buffer was added, and the mixture was incubated at room temperature for 30 minutes under light-shielded conditions. The fluorescence at 513 nm when irradiated with 389 nm excitation light was measured using a multiplate reader.

The mark [4] stands for this setting: pH 5.0, 37° C., read-out: pH 5.0 Pe.
Where [5] appears, read: pH 7.4, 37° C., read-out: pH 7.4 Pe.

Chain of recombinant p300 (Q09472 whole entry): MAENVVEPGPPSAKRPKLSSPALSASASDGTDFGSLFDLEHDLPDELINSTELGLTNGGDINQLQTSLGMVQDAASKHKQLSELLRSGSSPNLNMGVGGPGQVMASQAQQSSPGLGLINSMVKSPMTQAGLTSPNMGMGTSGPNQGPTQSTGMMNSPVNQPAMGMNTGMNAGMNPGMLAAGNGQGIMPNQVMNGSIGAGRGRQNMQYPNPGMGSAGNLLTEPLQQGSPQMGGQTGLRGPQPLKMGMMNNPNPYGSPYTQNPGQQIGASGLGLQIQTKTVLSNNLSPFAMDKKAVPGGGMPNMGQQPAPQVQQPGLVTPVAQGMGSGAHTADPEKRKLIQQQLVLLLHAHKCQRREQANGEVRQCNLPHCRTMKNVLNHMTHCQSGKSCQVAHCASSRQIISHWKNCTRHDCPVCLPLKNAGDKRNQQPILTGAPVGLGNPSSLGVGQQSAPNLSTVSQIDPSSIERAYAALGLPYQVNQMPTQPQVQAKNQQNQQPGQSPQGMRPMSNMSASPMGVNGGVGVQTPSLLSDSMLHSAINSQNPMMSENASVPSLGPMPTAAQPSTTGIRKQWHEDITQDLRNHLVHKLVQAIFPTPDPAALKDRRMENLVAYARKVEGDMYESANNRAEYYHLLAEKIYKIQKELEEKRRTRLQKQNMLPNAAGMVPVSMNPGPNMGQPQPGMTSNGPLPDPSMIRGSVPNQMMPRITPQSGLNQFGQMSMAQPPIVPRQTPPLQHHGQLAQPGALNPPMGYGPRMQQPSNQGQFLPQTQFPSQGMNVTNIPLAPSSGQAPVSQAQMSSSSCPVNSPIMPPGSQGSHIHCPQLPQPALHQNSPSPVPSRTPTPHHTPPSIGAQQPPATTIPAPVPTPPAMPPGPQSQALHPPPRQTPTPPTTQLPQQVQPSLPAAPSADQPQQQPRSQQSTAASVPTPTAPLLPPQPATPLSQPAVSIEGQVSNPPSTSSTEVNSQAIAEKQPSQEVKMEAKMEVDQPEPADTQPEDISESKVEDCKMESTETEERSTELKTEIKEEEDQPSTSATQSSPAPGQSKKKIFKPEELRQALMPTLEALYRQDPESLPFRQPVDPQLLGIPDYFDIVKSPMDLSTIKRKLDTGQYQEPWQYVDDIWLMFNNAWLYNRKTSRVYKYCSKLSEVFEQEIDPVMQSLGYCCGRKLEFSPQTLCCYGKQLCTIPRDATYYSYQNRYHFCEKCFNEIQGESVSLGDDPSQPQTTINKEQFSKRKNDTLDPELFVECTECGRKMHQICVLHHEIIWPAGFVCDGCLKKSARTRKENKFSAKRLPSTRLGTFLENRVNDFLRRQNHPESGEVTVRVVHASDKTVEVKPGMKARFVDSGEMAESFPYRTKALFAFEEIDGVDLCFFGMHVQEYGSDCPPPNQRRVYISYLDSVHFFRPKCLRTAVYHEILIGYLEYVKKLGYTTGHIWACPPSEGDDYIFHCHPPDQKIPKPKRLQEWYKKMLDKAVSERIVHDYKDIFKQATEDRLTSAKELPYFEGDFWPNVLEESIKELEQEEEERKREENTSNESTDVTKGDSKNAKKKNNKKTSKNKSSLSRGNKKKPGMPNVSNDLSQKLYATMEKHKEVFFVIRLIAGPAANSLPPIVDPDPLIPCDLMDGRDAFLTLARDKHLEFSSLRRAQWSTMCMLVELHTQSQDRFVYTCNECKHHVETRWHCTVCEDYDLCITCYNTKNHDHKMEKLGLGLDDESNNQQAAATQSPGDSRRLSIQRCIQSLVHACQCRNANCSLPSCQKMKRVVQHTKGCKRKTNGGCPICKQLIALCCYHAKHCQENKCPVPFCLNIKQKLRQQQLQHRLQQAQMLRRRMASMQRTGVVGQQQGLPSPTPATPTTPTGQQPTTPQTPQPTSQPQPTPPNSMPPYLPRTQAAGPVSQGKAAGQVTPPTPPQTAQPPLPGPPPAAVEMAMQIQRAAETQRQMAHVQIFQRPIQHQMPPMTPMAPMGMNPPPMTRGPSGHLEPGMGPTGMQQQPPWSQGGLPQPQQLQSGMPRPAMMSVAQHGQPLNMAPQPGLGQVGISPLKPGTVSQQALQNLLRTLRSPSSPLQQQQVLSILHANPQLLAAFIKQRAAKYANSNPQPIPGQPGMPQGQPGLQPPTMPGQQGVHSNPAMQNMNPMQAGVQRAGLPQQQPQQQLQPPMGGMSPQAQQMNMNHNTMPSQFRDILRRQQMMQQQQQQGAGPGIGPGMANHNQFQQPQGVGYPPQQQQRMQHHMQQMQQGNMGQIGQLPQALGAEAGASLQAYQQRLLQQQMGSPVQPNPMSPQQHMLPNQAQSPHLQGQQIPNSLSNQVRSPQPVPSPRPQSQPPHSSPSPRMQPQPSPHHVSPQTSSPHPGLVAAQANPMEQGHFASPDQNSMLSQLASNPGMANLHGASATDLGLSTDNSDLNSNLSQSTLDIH

What is called IC50 is the concentration that inhibits the measured activity by half. For `CN1CC(N(Cc2ccc(F)cc2)C(=O)CN2C(=O)N[C@]3(C[C@@H](F)c4cc(-c5cnn(C)c5F)ccc43)C2=O)(C(F)(F)F)C1` [Example 15, 2-[(1′S,3′R)-3′-fluoro-5′-(5-fluoro-1-methyl-1H-pyrazol-4-yl)-2,5-dioxo-2′,3′-dihydrospiro[imidazolidine-4,1′-inden]-1-yl]-N-[(4-fluorophenyl)methyl]-N-[1-methyl-3-(trifluoromethyl)azetidin-3-yl]acetamide], the 50% inhibitory concentration (IC50) in series [1] stood at 33 nM; in series [3], 6.1 nM. Moreover, the Papp at 4 h in series [2] (setting [4]) was 30 ×10⁻⁶ cm/s; in series [2] (setting [5]) it was 33.3 ×10⁻⁶ cm/s.

As to `CN1CC(N(Cc2ccc(F)cn2)C(=O)CN2C(=O)N[C@]3(CCc4cc(-c5cnn(C)c5)ccc43)C2=O)(C(F)(F)F)C1` [Example 21, N-[(5-fluoropyridin-2-yl)methyl]-2-[(1′S)-5′-(1-methyl-1H-pyrazol-4-yl)-2,5-dioxo-2′,3′-dihydrospiro[imidazolidine-4,1′-inden]-1-yl]-N-[1-methyl-3-(trifluoromethyl)azetidin-3-yl]acetamide], the IC50 in series [1] was determined as 353 nM; in series [3], 52 nM. The Papp at 4 h in series [2] (setting [4]) was determined as 6.2 ×10⁻⁶ cm/s; in series [2] (setting [5]) it was 21.2 ×10⁻⁶ cm/s.

On to `CN1CC(N(Cc2ccc(F)cc2)C(=O)CN2C(=O)N[C@]3(CCc4cc(-c5cn(C)nc5F)ccc43)C2=O)(C(F)(F)F)C1` [Example 18, 2-[(1′S)-5′-(3-fluoro-1-methyl-1H-pyrazol-4-yl)-2,5-dioxo-2′,3′-dihydrospiro[imidazolidine-4,1′-inden]-1-yl]-N-[(4-fluorophenyl)methyl]-N-[1-methyl-3-(trifluoromethyl)azetidin-3-yl]acetamide], for which the IC50 amounted to 292 nM in series [1] and 58.2 nM in series [3]. In addition, the figures for the Papp at 4 h in series [2] (setting [4]) and in series [2] (setting [5]) were 28.6 ×10⁻⁶ cm/s and 31.8 ×10⁻⁶ cm/s, respectively.

For `CN1CC(F)(Cn2cc(-c3ccc4c(c3)CC[C@]43NC(=O)N(CC(=O)N(Cc4ccc(F)cc4)C4(C(F)(F)F)COC4)C3=O)cn2)C1` [Example 2, 2-[(1′S)-5′-{1-[(3-fluoro-1-methylazetidin-3-yl)methyl]-1H-pyrazol-4-yl}-2,5-dioxo-2′,3′-dihydrospiro[imidazolidine-4,1′-inden]-1-yl]-N-[(4-fluorophenyl)methyl]-N-[3-(trifluoromethyl)oxetan-3-yl]acetamide], the IC50 came to 89 nM in series [1] and 19 nM in series [3]. The Papp at 4 h in series [2] (setting [4]) was found to be 7.4 ×10⁻⁶ cm/s; in series [2] (setting [5]) it was 19 ×10⁻⁶ cm/s.

With `CN1CC(N(Cc2ccc(F)cc2)C(=O)CN2C(=O)N[C@@]3(C[C@H](F)c4cc(-c5cnn(C)c5)c(F)cc43)C2=O)(C(F)(F)F)C1` [Example 28, 2-[(1′R,3'S)-3′,6′-difluoro-5′-(1-methyl-1H-pyrazol-4-yl)-2,5-dioxo-2′,3′-dihydrospiro[imidazolidine-4,1′-inden]-1-yl]-N-[(4-fluorophenyl)methyl]-N-[1-methyl-3-(trifluoromethyl)azetidin-3-yl]acetamide], the Papp at 4 h amounted to 25.7 ×10⁻⁶ cm/s in series [2] (setting [4]) and 30 ×10⁻⁶ cm/s in series [2] (setting [5]).

Take `CN1CC(N(Cc2ccc(F)cn2)C(=O)CN2C(=O)N[C@]3(C[C@@H](F)c4cc(-c5cnn(C(C)(C)C#N)c5)ccc43)C2=O)(C(F)(F)F)C1` [Example 26, 2-{(1′S,3′R)-5′-[1-(2-cyanopropan-2-yl)-1H-pyrazol-4-yl]-3′-fluoro-2,5-dioxo-2′,3′-dihydrospiro[imidazolidine-4,1′-inden]-1-yl}-N-[(5-fluoropyridin-2-yl)methyl]-N-[1-methyl-3-(trifluoromethyl)azetidin-3-yl]acetamide]: the IC50 in series [1] stood at 14 nM; in series [3], 9.2 nM. Besides, the values for the Papp at 4 h in series [2] (setting [4]) and in series [2] (setting [5]) were 10.2 ×10⁻⁶ cm/s and 16.3 ×10⁻⁶ cm/s, respectively.

As for `O=C1N[C@]2(CCc3cc(-c4cnn(C5CN(C6COC6)C5)c4)ccc32)C(=O)N1CC(=O)N(Cc1ccc(F)cn1)C1(C(F)(F)F)COC1` [Example 6, N-[(5-fluoropyridin-2-yl)methyl]-2-[(1′S)-5′-{1-[1-(oxetan-3-yl)azetidin-3-yl]-1H-pyrazol-4-yl}-2,5-dioxo-2′,3′-dihydrospiro[imidazolidine-4,1′-inden]-1-yl]-N-[3-(trifluoromethyl)oxetan-3-yl]acetamide], the half-inhibitory concentration (IC50) amounted to 391 nM in series [1] and 19.8 nM in series [3]. In addition, the results for the Papp at 4 h in series [2] (setting [4]) and in series [2] (setting [5]) were 3.1 ×10⁻⁶ cm/s and 5.5 ×10⁻⁶ cm/s, respectively.

As for `CN1CC(N(Cc2ccc(C(F)(F)F)cc2)C(=O)CN2C(=O)N[C@]3(C[C@@H](F)c4cc(-c5cnn(C)c5)ccc43)C2=O)(C(F)(F)F)C1` [Example 35, 2-[(1′S,3′R)-3′-fluoro-5′-(1-methyl-1H-pyrazol-4-yl)-2,5-dioxo-2′,3′-dihydrospiro[imidazolidine-4,1′-inden]-1-yl]-N-[1-methyl-3-(trifluoromethyl)azetidin-3-yl]-N-{[4-(trifluoromethyl)phenyl]methyl}acetamide], the IC50 in series [1] stood at 72 nM; in series [3], 5.2 nM. The values for the Papp at 4 h in series [2] (setting [4]) and in series [2] (setting [5]) were 31.2 ×10⁻⁶ cm/s and 33.7 ×10⁻⁶ cm/s, respectively.

As to `CN1CC(N(Cc2ccc(F)cc2)C(=O)CN2C(=O)N[C@]3(C[C@@H](F)c4cc(-c5cn(C)nc5F)ccc43)C2=O)(C(F)(F)F)C1` [Example 17, 2-[(1′S,3′R)-3′-fluoro-5′-(3-fluoro-1-methyl-1H-pyrazol-4-yl)-2,5-dioxo-2′,3′-dihydrospiro[imidazolidine-4,1′-inden]-1-yl]-N-[(4-fluorophenyl)methyl]-N-[1-methyl-3-(trifluoromethyl)azetidin-3-yl]acetamide], the IC50 in series [1] was determined as 25 nM; in series [3] it was 2.3 nM. Further, the Papp at 4 h in series [2] (setting [4]) was 28.1 ×10⁻⁶ cm/s; in series [2] (setting [5]) it was 32.2 ×10⁻⁶ cm/s.

Consider `CN1CC(N(Cc2ccc(F)cc2)C(=O)CN2C(=O)N[C@]3(CCc4cc(-c5cnn(C)c5F)ccc43)C2=O)(C(F)(F)F)C1` [Example 16, 2-[(1′S)-5′-(5-fluoro-1-methyl-1H-pyrazol-4-yl)-2,5-dioxo-2′,3′-dihydrospiro[imidazolidine-4,1′-inden]-1-yl]-N-[(4-fluorophenyl)methyl]-N-[1-methyl-3-(trifluoromethyl)azetidin-3-yl]acetamide], for which the values for the IC50 in series [1] and in series [3] were 310 nM and 53.6 nM, respectively. The Papp at 4 h in series [2] (setting [4]) is 29.2 ×10⁻⁶ cm/s; in series [2] (setting [5]), 32 ×10⁻⁶ cm/s.

For `CN1CC(N(Cc2ccc(F)cc2)C(=O)CN2C(=O)N[C@]3(C[C@@H](F)c4cc(-c5cnn(C6CCOCC6)c5)ccc43)C2=O)(C(F)(F)F)C1` [Example 19, 2-{(1′S,3′R)-3′-fluoro-5′-[1-(oxan-4-yl)-1H-pyrazol-4-yl]-2,5-dioxo-2′,3′-dihydrospiro[imidazolidine-4,1′-inden]-1-yl}-N-[(4-fluorophenyl)methyl]-N-[1-methyl-3-(trifluoromethyl)azetidin-3-yl]acetamide], the IC50 in series [1] was 24 nM; in series [3], 7.2 nM. The Papp at 4 h turned out to be 24.4 ×10⁻⁶ cm/s in series [2] (setting [4]) and 28.9 ×10⁻⁶ cm/s in series [2] (setting [5]).

`O=C1N[C@]2(CCc3cc(-c4cnn(C5CN(C6COC6)C5)c4)ccc32)C(=O)N1CC(=O)N(Cc1ccc(F)cn1)C1(C(F)(F)F)CC(F)(F)C1` [Example 8, N-[3,3-difluoro-1-(trifluoromethyl)cyclobutyl]-N-[(5-fluoropyridin-2-yl)methyl]-2-[(1′S)-5′-{1-[1-(oxetan-3-yl)azetidin-3-yl]-1H-pyrazol-4-yl}-2,5-dioxo-2′,3′-dihydrospiro[imidazolidine-4,1′-inden]-1-yl]acetamide] had an IC50 in series [1] of 247 nM. In addition, the figures for the Papp at 4 h in series [2] (setting [4]) and in series [2] (setting [5]) were 13.5 ×10⁻⁶ cm/s and 14.3 ×10⁻⁶ cm/s, respectively.
